Read-outs that look alike come from different tables or passages of the source.

Test [1] deals with T1, rat EP4 receptor (Rattus norvegicus (Rat), UniProt P43114). The experiment in a line: cAMP level assay for EP4 agonist (STEP plate format). It counts as cell-based. The note with it: read-out: STEP cell functional assay EC50 cAMP/EP4. The source says:
(§1) Functional Cellular Assays (STEP Plate Format)
Procedure of cAMP Assay for EP2/EP4 Agonist
(§2) 3. […] In addition each concentration had triplicates.
6. Aspirate the supernatant.

Test [2] deals with T1, rat EP4 receptor. The experiment in a line: SEAP activity assay for EP4 agonist (STEP plate format). It counts as cell-based.
From the text: as §1
(§3) Procedure of SEAP Activity Assay for EP2/EP4 Agonist
as §2
(§4) 4. […] Cover the plate with the lid.

In test [3] the target is Human Prostanoid EP4 Receptor (Homo sapiens (Human), UniProt P35408). The experiment in a line: Radioligand binding assay, agonist site of human prostanoid EP4 receptor in transfected HEK-293 cells. The note with it: for IC50: read-out: hEP4 receptor binding IC50; for Ki: read-out: hEP4 receptor binding Ki. As for the experimental part: Radioligand Binding Assay for the Evaluation of the Affinity of Compounds for the Agonist Site of the Human Prostanoid EP4 Receptor in Transfected HEK-293 Cells
Following incubation, the samples are filtered rapidly under vacuum through glass fiber filters (GF/B, Packard) presoaked with 0.3% PEI and rinsed several times with ice-cold 50 mM Tris-HCl using a 96-sample cell harvester (Unifilter, Packard). The filters are dried then counted for radioactivity in a scintillation counter (Topcount, Packard) using a scintillation cocktail (Microscint 0, Packard).

In test [4] the target is rat EP2 receptor (Rattus norvegicus (Rat), UniProt Q62928). The experiment in a line: SEAP activity assay for EP2 agonist (STEP plate format). The test is classed as cell-based. The note with it: read-out: STEP cell functional assay EC50 SEAP/EP2.
From the text: as §1, §3, §2, §4

The mark [5] stands for this setting: cAMP by ELISA, 30 minutes, 500 μM IBMX.
Where [6] appears, read: SEAP luminescence, 6-8 hours of stimulation, read-out: STEP cell functional assay EC50 SEAP/EP4.
The mark [7] stands for this setting: [3H]PGE2 0.5 nM, HEK-293 cell membrane homogenates.
Where [8] appears, read: SEAP luminescence, 6-8 hours of stimulation.

T1 sequence (P43114 whole entry): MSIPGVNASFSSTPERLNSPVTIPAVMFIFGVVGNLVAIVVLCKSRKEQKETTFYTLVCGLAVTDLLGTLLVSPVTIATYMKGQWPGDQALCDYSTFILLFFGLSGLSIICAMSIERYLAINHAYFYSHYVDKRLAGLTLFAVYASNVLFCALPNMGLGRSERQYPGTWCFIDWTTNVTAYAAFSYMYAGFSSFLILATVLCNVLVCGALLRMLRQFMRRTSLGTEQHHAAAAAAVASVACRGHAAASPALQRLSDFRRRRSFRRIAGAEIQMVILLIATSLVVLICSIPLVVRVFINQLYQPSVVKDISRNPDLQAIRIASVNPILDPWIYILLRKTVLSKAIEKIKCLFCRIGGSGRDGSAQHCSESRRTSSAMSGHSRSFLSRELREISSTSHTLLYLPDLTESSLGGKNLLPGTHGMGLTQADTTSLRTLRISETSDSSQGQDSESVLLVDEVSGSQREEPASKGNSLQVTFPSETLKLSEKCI
Sequence of Human Prostanoid EP4 Receptor (P35408 whole entry): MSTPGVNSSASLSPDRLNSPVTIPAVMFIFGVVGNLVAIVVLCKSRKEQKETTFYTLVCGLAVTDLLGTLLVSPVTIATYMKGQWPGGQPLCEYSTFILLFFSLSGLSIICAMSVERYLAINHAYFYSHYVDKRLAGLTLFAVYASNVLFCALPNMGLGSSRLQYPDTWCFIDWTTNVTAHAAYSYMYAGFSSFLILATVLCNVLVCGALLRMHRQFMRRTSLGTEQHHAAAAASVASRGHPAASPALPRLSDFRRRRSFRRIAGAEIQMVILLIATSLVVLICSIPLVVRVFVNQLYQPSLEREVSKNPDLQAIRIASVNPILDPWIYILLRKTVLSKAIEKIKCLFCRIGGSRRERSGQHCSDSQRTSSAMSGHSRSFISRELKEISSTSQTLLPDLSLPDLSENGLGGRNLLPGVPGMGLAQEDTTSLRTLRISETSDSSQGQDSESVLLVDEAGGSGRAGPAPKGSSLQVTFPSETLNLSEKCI
Sequence of rat EP2 receptor (Q62928 whole entry): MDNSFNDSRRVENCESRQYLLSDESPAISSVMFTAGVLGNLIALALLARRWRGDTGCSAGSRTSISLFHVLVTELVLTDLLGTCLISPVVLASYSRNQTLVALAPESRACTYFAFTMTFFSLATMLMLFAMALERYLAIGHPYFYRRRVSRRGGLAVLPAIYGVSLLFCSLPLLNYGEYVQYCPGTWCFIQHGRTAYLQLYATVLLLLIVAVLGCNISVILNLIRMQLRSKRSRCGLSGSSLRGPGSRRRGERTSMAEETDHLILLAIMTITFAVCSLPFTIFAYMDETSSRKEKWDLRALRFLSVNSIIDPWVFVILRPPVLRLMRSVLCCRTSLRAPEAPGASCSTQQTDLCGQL

What is called IC50 is the concentration needed to halve the response being measured. One may read the Ki as a dissociation constant, usually derived from enzyme kinetics or from competition with a known ligand. Consider `CC#CC[C@H](C)[C@H](O)/C=C/[C@H]1CC(F)(F)C(=O)N1CCCCCCC(=O)O` [Example 1F, 7-((R)-3,3-difluoro-5-((3S,4S,E)-3-hydroxy-4-methyloct-1-en-6-yn-1-yl)-2-oxopyrrolidin-1-yl)heptanoic acid], for which the EC50 in test [1] (setting [5]) was found to be 0.15 nM. For the same compound, the EC50 in test [2] (setting [6]) was determined as 0.059 nM. In test [3] (setting [7]), the IC50 amounted to 1.2 nM and the Ki came to 0.44 nM.

Consider `CCCCC[C@H](O)/C=C/[C@H]1CC(F)(F)C(=O)N1CCCCCCC(=O)O` [Example 9C, 7-((R)-3,3-difluoro-5-((S,E)-3-hydroxyoct-1-en-1-yl)-2-oxopyrrolidin-1-yl)heptanoic acid], for which the EC50 is 0.37 nM in test [1] (setting [5]), 0.059 nM in test [2] (setting [6]) and 205 ± 124 nM in test [4] (setting [8]). In addition, the IC50 in test [3] (setting [7]) came out at 0.57 nM. In test [3] (setting [7]), the Ki worked out at 0.21 nM.

For the compound `O=C(O)CCCCCCN1C(=O)C(F)(F)C[C@@H]1/C=C/[C@@H](O)CCCCc1ccccc1` [Example 10C, 7-((R)-3,3-difluoro-5-((S,E)-3-hydroxy-7-phenylhept-1-en-1-yl)-2-oxopyrrolidin-1-yl)heptanoic acid], in test [1] (setting [5]), the EC50 stood at 1.1 nM. For the same compound, the EC50 in test [2] (setting [6]) turned out to be 0.01 nM. Moreover, in test [3] (setting [7]), the half-inhibitory concentration (IC50) was 4.9 nM and the Ki was 1.8 nM.

For `C[C@@H](CCCc1ccccc1)[C@H](O)/C=C/[C@H]1CC(F)(F)C(=O)N1CCCc1ccc(C(=O)O)s1` [Example 28C, 5-(3-((R)-3,3-difluoro-5-((3S,4S,E)-3-hydroxy-4-methyl-7-phenylhept-1-en-1-yl)-2-oxopyrrolidin-1-yl)propyl)thiophene-2-carboxylic acid], the EC50 in test [1] (cAMP readout, EP4) was determined as 0.01 ± 0.021 nM; in test [4] (SEAP readout, EP2), 148 ± 5 nM. Besides, the IC50 in test [3] (human EP4 receptor binding) came out at 0.74 nM. In addition, the Ki in test [3] (human EP4 receptor binding) is 0.28 nM.

`C[C@@H](CCCc1ccccc1)[C@@H](O)/C=C/[C@H]1CC(F)(F)C(=O)N1CCCc1ccc(C(=O)O)s1` [Example 28D, 5-(3-((R)-3,3-difluoro-5-((3R,4S,E)-3-hydroxy-4-methyl-7-phenylhept-1-en-1-yl)-2-oxopyrrolidin-1-yl)propyl)thiophene-2-carboxylic acid]: in test [1] (cAMP readout, EP4), the EC50 was determined as 5.68 nM.

For `COC(=O)c1ccc(CCCN2C(=O)C(F)(F)C[C@@H]2/C=C/[C@H](O)[C@H](C)CCCc2ccccc2)s1` [Example 28F, methyl 5-(3-((R)-3,3-difluoro-5-((3R,4R,E)-3-hydroxy-4-methyl-7-phenylhept-1-en-1-yl)-2-oxopyrrolidin-1-yl)propyl)thiphene-2-carboxylate], in test [1] (cAMP readout, EP4), the EC50 was greater than 1000 nM.

With `C[C@H](CCCc1ccccc1)[C@H](O)/C=C/[C@H]1CC(F)(F)C(=O)N1CCCc1ccc(C(=O)O)s1` [Example 28G, 5-(3-((R)-3,3-difluoro-5-((3S,4R,E)-3-hydroxy-4-methyl-7-phenylhept-1-en-1-yl)-2-oxopyrrolidin-1-yl)propyl)thiphene-2-carboxylic acid], the EC50 is 0.0162 nM in test [1] (cAMP readout, EP4) and 65 nM in test [4] (SEAP readout, EP2).

With `C[C@H](CCCc1ccccc1)[C@@H](O)/C=C/[C@H]1CC(F)(F)C(=O)N1CCCc1ccc(C(=O)O)s1` [Example 28H, 5-(3-((R)-3,3-difluoro-5-((3R,4R,E)-3-hydroxy-4-methyl-7-phenylhept-1-en-1-yl)-2-oxopyrrolidin-1-yl)propyl)thiphene-2-carboxylic acid], the EC50 in test [1] (cAMP readout, EP4) was 3.15 nM.

In the case of `C[C@@H](c1ccccc1)[C@H](O)/C=C/[C@H]1CC(F)(F)C(=O)N1CCCc1ccc(C(=O)O)s1` [Example 35C, 5-(3-((R)-3,3-difluoro-5-((3R,4S,E)-3-hydroxy-4-phenylpent-1-en-1-yl)-2-oxopyrrolidin-1-yl)propyl)thiophene-2-carboxylic acid], in test [1] (cAMP readout, EP4), the EC50 turned out to be 62 nM.

Turning to `COC(=O)c1ccc(CCCN2C(=O)C(F)(F)C[C@@H]2/C=C/[C@@H](O)[C@@H](C)Cc2ccccc2)s1` [Example 36A, methyl 5-(3-((R)-3,3-difluoro-5-((3S,4S,E)-3-hydroxy-4-methyl-5-phenylpent-1-en-1-yl)-2-oxopyrrolidin-1-yl)propyl)thiophene-2-carboxylate], in test [1] (cAMP readout, EP4), the EC50 is 5.02 nM.

Turning to `COC(=O)c1ccc(CCCN2C(=O)C(F)(F)C[C@@H]2/C=C/[C@H](O)[C@@H](C)Cc2ccccc2)s1` [Example 36B, methyl 5-(3-((R)-3,3-difluoro-5-((3R,4S,E)-3-hydroxy-4-methyl-5-phenylpent-1-en-1-yl)-2-oxopyrrolidin-1-yl)propyl)thiophene-2-carboxylate], in test [1] (cAMP readout, EP4), the EC50 was greater than 1000 nM.

For `C[C@@H](Cc1ccccc1)[C@H](O)/C=C/[C@H]1CC(F)(F)C(=O)N1CCCc1ccc(C(=O)O)s1` [Example 36C, 5-(3-((R)-3,3-difluoro-5-((3S,4S,E)-3-hydroxy-4-methyl-5-phenylpent-1-en-1-yl)-2-oxopyrrolidin-1-yl)propyl)thiophene-2-carboxylic acid], the EC50 in test [1] (cAMP readout, EP4) worked out at 0.038 nM; in test [4] (SEAP readout, EP2), 1000 nM.

For `COC(=O)c1ccc(CCCN2C(=O)C(F)(F)C[C@@H]2/C=C/[C@@H](O)[C@@H](C)CCc2ccccc2)s1` [Example 37A, methyl 5-(3-((R)-3,3-difluoro-5-((3S,4S,E)-3-hydroxy-4-methyl-6-phenylhex-1-en-1-yl)-2-oxopyrrolidin-1-yl)propyl)thiophene-2-carboxylate], in test [1] (cAMP readout, EP4), the EC50 was 8.09 nM.

As for `COC(=O)c1ccc(CCCN2C(=O)C(F)(F)C[C@@H]2/C=C/[C@@H](O)[C@@H](C)CCCCc2ccccc2)s1` [Example 38A, methyl 5-(3-((R)-3,3-difluoro-5-((3S,4S,E)-3-hydroxy-4-methyl-8-phenyloct-1-en-1-yl)-2-oxopyrrolidin-1-yl)propyl)thiophene-2-carboxylate], in test [1] (cAMP readout, EP4), the EC50 is greater than 1000 nM.

Regarding `COC(=O)c1ccc(CCCN2C(=O)C(F)(F)C[C@@H]2/C=C/[C@H](O)[C@@H](C)CCCCc2ccccc2)s1` [Example 38B, methyl 5-(3-((R)-3,3-difluoro-5-((3R,4S,E)-3-hydroxy-4-methyl-8-phenyloct-1-en-1-yl)-2-oxopyrrolidin-1-yl)propyl)thiophene-2-carboxylate], the EC50 in test [1] (cAMP readout, EP4) is greater than 1000 nM.

For `C[C@@H](CCCCc1ccccc1)[C@H](O)/C=C/[C@H]1CC(F)(F)C(=O)N1CCCc1ccc(C(=O)O)s1` [Example 38C, 5-(3-((R)-3,3-difluoro-5-((3S,4S,E)-3-hydroxy-4-methyl-8-phenyloct-1-en-1-yl)-2-oxopyrrolidin-1-yl)propyl)thiophene-2-carboxylic acid], the EC50 in test [4] (SEAP readout, EP2) is 157 nM.

Turning to `C[C@@H](CCCCc1ccccc1)[C@@H](O)/C=C/[C@H]1CC(F)(F)C(=O)N1CCCc1ccc(C(=O)O)s1` [Example 38D, 5-(3-((R)-3,3-difluoro-5-((3R,4S,E)-3-hydroxy-4-methyl-8-phenyloct-1-en-1-yl)-2-oxopyrrolidin-1-yl)propyl)thiophene-2-carboxylic acid], the EC50 is 0.37 nM in test [1] (cAMP readout, EP4) and greater than 10000 nM in test [4] (SEAP readout, EP2).

In the case of `COC(=O)c1ccc(CCCN2C(=O)C(F)(F)C[C@@H]2/C=C/[C@@H](O)[C@@H](C)CCCCCc2ccccc2)s1` [Example 39A, methyl 5-(3-((R)-3,3-difluoro-5-((3S,4S,E)-3-hydroxy-4-methyl-9-phenylnon-1-en-1-yl)-2-oxopyrrolidin-1-yl)propyl)thiophene-2-carboxylate], the EC50 in test [1] (cAMP readout, EP4) was greater than 1000 nM.

On to `COC(=O)c1ccc(CCCN2C(=O)C(F)(F)C[C@@H]2/C=C/[C@H](O)[C@@H](C)CCCCCc2ccccc2)s1` [Example 39B, methyl 5-(3-((R)-3,3-difluoro-5-((3R,4S,E)-3-hydroxy-4-methyl-9-phenylnon-1-en-1-yl)-2-oxopyrrolidin-1-yl)propyl)thiophene-2-carboxylate], for which the EC50 in test [1] (cAMP readout, EP4) was greater than 1000 nM.

For `C[C@@H](CCCCCc1ccccc1)[C@H](O)/C=C/[C@H]1CC(F)(F)C(=O)N1CCCc1ccc(C(=O)O)s1` [Example 39C, 5-(3-((R)-3,3-difluoro-5-((3S,4S,E)-3-hydroxy-4-methyl-9-phenylnon-1-en-1-yl)-2-oxopyrrolidin-1-yl)propyl)thiophene-2-carboxylic acid], in test [4] (SEAP readout, EP2), the EC50 was determined as 1020 nM.

Regarding `C[C@@H](CCCCCc1ccccc1)[C@@H](O)/C=C/[C@H]1CC(F)(F)C(=O)N1CCCc1ccc(C(=O)O)s1` [Example 39D, 5-(3-((R)-3,3-difluoro-5-((3R,4S,E)-3-hydroxy-4-methyl-9-phenylnon-1-en-1-yl)-2-oxopyrrolidin-1-yl)propyl)thiophene-2-carboxylic acid], the EC50 in test [1] (cAMP readout, EP4) came to 0.059 nM; in test [4] (SEAP readout, EP2), 79000 nM.

On to `CCCCC[C@H](O)/C=C/[C@H]1[C@H](O)CC(=O)[C@@H]1CCCCCCC(=O)O` [PGE1, reference compound], for which the EC50 in test [4] (setting [8]) is 16.5 nM.

In test [2], `CCCCC[C@H](O)/C=C/[C@H]1[C@H](O)CC(=O)[C@@H]1C/C=C\CCCC(=O)O` [PGE2, prostaglandin E2, reference compound] registered an EC50 of […].
